According to US6153634A, “4,5-azolo-oxindoles” (Hoffmann-La Roche Inc., priority 1999, dated 2000):

Target: T1, human Cyclin E/CDK2 (Homo sapiens, UniProt P24941)
T1 construct: made in house; host or cells: insect cells
Assay: CDK2 FlashPlate Assay (inhibition of Rb phosphorylation)
Type: biochemical
Conditions: Concentration 0.5 μM; Cyclin E/CDK2, Rb-coated FlashPlates
Experimental: To determine inhibition of CDK2 activity, purified recombinant retinoblastoma (Rb) protein was coated on 96 well FlashPlates (New England Nuclear, Boston, Mass.). Rb is a natural substrate for phosphorylation by CDK2 (Herwig and Strauss Eurr. J. Biochem., Vol. 246 (1997) pp. 581-601 and references therein). Recombinant active human Cyclin E/CDK2 complexes were partially purified from extracts of insect cells. The active Cyclin E/CDK2 was added to the Rb-coated FlashPlates along with ^33 P-ATP and dilutions of test compounds. Plates were incubated for 25 minutes at room temperature with shaking, then washed and counted in the Topcount scintillation counter (Packard Instrument Co., Downers Grove, Ill.). Dilutions of test compounds were tested in duplicate in each assay. The percent inhibition of Rb phosphorylation, which is a measure of the inhibition of CDK2 activity, was determined according to the following formula: [formula] where "test compound" refers to the average counts per minute of the test duplicates, "nonspecific" refers to the average counts per minute when no Cyclin E/CDK2 was added, and "total" refers to the average counts per minute when no compound was added.

Structure (SMILES) | inhibition at 0.5 µM [%]
COc1cc[nH]c1/C=C1\C(=O)Nc2ccc3[nH]c(Nc4cccc(C(C)=O)c4)nc3c21 [BB, (Z)-2-[N-(3-Acetylphenyl)amino]-8-[(3-methoxy-1H-pyrrol-2-yl)methylene]-3,6,7,8-tetrahydro-pyrrolo[3,2-e]benzimidazol-7-one] | < 50
CCOC(=O)c1ccc(Nc2nc3c4c(ccc3[nH]2)NC(=O)/C4=C\c2[nH]ccc2OC)cc1 [CC, (Z)-4-[[8-[(3-Methoxy-1H-pyrrol-2-yl)methylene]-7-oxo-3,6,7,8-tetrahydro-imidazo[4,5-e]indol-2-yl]amino]-benzoic acid ethyl ester] | < 50
COC(=O)c1ccc(Nc2nc3c4c(ccc3[nH]2)NC(=O)/C4=C\c2[nH]ccc2OC)cc1 [EE, (Z)-4-[[8-[(3-Methoxy-1H-pyrrol-2-yl)methylene]-7-oxo-3,6,7,8-tetrahydro-imidazo[4,5-e]indol-2-yl]amino]-benzoic acid methyl ester] | < 50
COc1cc[nH]c1/C=C1\C(=O)Nc2ccc3[nH]c(NCc4ccc(F)cc4)nc3c21 [FF, (Z)-2-[N-[(4-Fluorophenyl)methyl]amino]-8-[(3-methoxy-1H-pyrrol-2-yl)methylene]-3,6,7,8-tetrahydro-pyrrolo[3,2-e]benzimidazol-7-one] | > 50
COc1ccc(CCNc2nc3c4c(ccc3[nH]2)NC(=O)/C4=C\c2[nH]ccc2OC)cc1OC [GG, (Z)-2-[N-[2-(3,4-Dimethoxyphenyl)ethyl]amino]-8-[(3-methoxy-1H-pyrrol-2-yl)methylene]-3,6,7,8-tetrahydro-pyrrolo[3,2-e]benzimidazol-7-one] | < 50
COc1ccccc1Nc1nc2c3c(ccc2[nH]1)NC(=O)/C3=C\c1[nH]ccc1OC [II, (Z)-2-[N-(2-Methoxyphenyl)amino]-8-[(3-methoxy-1H-pyrrol-2-yl)methylene]-3,6,7,8-tetrahydro-pyrrolo[3,2-e]benzimidazol-7-one] | < 50
COc1cc[nH]c1/C=C1\C(=O)Nc2ccc3[nH]c(NCCCCc4ccccc4)nc3c21 [JJ, (Z)-8-[(3-Methoxy-1H-pyrrol-2-yl)methylene]-2-[N-(4-phenylbutyl)amino]-3,6,7,8-tetrahydro-pyrrolo[3,2-e]benzimidazol-7-one] | < 50
CCOC(=O)CCCNc1nc2c3c(ccc2[nH]1)NC(=O)/C3=C\c1[nH]ccc1OC [LL, (Z)-4-[[8-[(3-Methoxy-1H-pyrrol-2-yl)methylene]-7-oxo-3,6,7,8-tetrahydro-imidazo[4,5-e]indol-2-yl]amino]-butanoic acid ethyl ester] | > 50
COc1cc[nH]c1/C=C1\C(=O)Nc2ccc([N+](=O)[O-])c(N=[N+]=[N-])c21 [M, (Z)-4-Azido-1,3-dihydro-3-[(3-methoxy-1H-pyrrol-2-yl)methylene]-5-nitro-2H-indol-2-one] | > 50
COc1cc[nH]c1/C=C1\C(=O)Nc2ccc3[nH]c(Nc4cccc5ccccc45)nc3c21 [MM, (Z)-8-[(3-Methoxy-1H-pyrrol-2-yl)methylene]-2-[N-(1-naphthyl)amino]-3,6,7,8-tetrahydro-pyrrolo[3,2-e]benzimidazol-7-one] | > 50
COc1cc[nH]c1/C=C1\C(=O)Nc2ccc3[nH]c(NCCN4CCCCC4)nc3c21 [NN, (Z)-8-[(3-Methoxy-1H-pyrrol-2-yl)methylene]-2-[N-[2-(N-piperidinyl)ethyl]-amino]-3,6,7,8-tetrahydro-pyrrolo[3,2-e]benzimidazol-7-one] | > 50
COc1cc[nH]c1/C=C1\C(=O)Nc2ccc3[nH]c(NCc4ccc5c(c4)OCO5)nc3c21 [VV, (Z)-2-[N-(1,3-Benzodioxol-5-yl)methylamino]-8-[(3-methoxy-1H-pyrrol-2-yl)methylene]-3,6,7,8-tetrahydro-pyrrolo[3,2-e]benzimidazol-7-one] | < 50
COc1cc[nH]c1/C=C1\C(=O)Nc2ccc3[nH]c(NCc4cccc5ccccc45)nc3c21 [WW, (Z)-8-[(3-Methoxy-1H-pyrrol-2-yl)methylene]-2-[N-(1-naphthalenyl)methylamino]-3,6,7,8-tetrahydro-pyrrolo[3,2-e]benzimidazol-7-one] | < 50
COc1cc[nH]c1/C=C1\C(=O)Nc2ccc3[nH]c(NCCCc4ccccc4)nc3c21 [XX, (Z)-8-[(3-Methoxy-1H-pyrrol-2-yl)methylene]-2-[N-(3-phenylpropyl)amino]-3,6,7,8-tetrahydro-pyrrolo[3,2-e]benzimidazol-7-one] | < 50
COc1ccc(Nc2nc3c4c(ccc3[nH]2)NC(=O)/C4=C\c2[nH]ccc2OC)cc1OC [Y, (Z)-2-[N-(3,4-Dimethoxyphenyl)amino]-8-[(3-methoxy-1H-pyrrol-2-yl)methylene]-3,6,7,8-tetrahydro-pyrrolo[3,2-e]benzimidazol-7-one] | < 50
COc1cc[nH]c1/C=C1\C(=O)Nc2ccc3[nH]c(Nc4ccc5c(c4)CCC5)nc3c21 [YY, (Z)-2-[N-(2,3-Dihydro-1H-inden-5-yl)amino]-8-[(3-methoxy-1H-pyrrol-2-yl)methylene]-3,6,7,8-tetrahydro-pyrrolo[3,2-e]benzimidazol-7-one] | < 50
COc1ccc(Nc2nc3c4c(ccc3[nH]2)NC(=O)/C4=C\c2[nH]ccc2OC)cc1 [Z, (Z)-2-[N-(4-Methoxyphenyl)amino]-8-[(3-methoxy-1H-pyrrol-2-yl)methylene]-3,6,7,8-tetrahydro-pyrrolo[3,2-e]benzimidazol-7-one] | < 50

Same assay, conditions: Cyclin E/CDK2, Rb-coated FlashPlates, 33P-ATP, 25 min room temperature

Structure (SMILES) | IC50 [µM]
COc1cc[nH]c1/C=C1\C(=O)Nc2ccc3[nH]c(-c4ccc(C(=O)O)cc4)nc3c21 [R] | < 3.5

Test system: MDA-MB-435
Assay: Cell-based antiproliferative (MTT) assay, MDA-MB-435 breast carcinoma
Conditions: Homo sapiens, MDA-MB-435, 120 h, cell line MDA-MB435 (breast), 5 days post addition, one experiment mostly, average where repeated
Experimental: The estrogen receptor negative epithelial breast carcinoma line (MDA-MB-435) was purchased from American Type Cell Culture Collection (ATCC; Rockville, Md.) and was grown in the medium recommended by ATCC. For analysis of the effect of the test compounds on growth of these cells, the cells were plated at 2000 cells per well in a 96-well tissue culture plate, and were incubated overnight at 37° C. with 5% CO2. The next day, the test compounds were dissolved in 100% dimethyl sulfoxide (DMSO) to yield a 10 mM stock solution. Each compound was diluted with sterile medium to 1 mM in a sufficient quantity to yield a final concentration of 120 μM. The compounds were then serially diluted in medium with 1.2% DMSO. […] The plates were returned to the incubator, and 5 days post addition of test compound, were analyzed as described below. […] Absorbencies were read in a microtiter plate reader (Molecular Dynamics) at a wavelength of 570 nm with a 650 nm reference. Percent inhibition was calculated by subtracting the absorbance of the blank (no cell) wells from all wells, then subtracting the division of the average absorbance of each test duplicate by the average of the controls from 1.00. Inhibitory concentrations (IC50) were determined from the linear regression of a plot of the logarithm of the concentration versus the percent inhibition.

Structure (SMILES) | IC50 [µM]
Cc1nc[nH]c1/C=C1\C(=O)Nc2ccc3[nH]cnc3c21 [SS, (Z)-8-[(4-Methyl-1H-imidazol-5-yl)methylene]-3,6,7,8-tetrahydro-pyrrolo[3,2-e]benzimidazol-7-one] | < 3.5
